According to US6649763B1, “Optically active quinoline carboxylic acid derivatives with 7-pyrrolidine substituents causing optical activity and a process for the preparation thereof” (Dong Wha Pharm. Ind. Co., Ltd., priority 1999, dated 2003):

How the values were obtained:
[1] = system: Staphylococcus aureus 303; assay: Antibacterial activity in vitro (MIC, agar dilution); assay type: cell-based; conditions: resistant strain Staphylococcus aureus 303
Description: (§1) The optically active quinoline carboxylic acid derivatives of the present invention were tested as to whether they could be useful as antibacterial compounds. In this regard, the compounds were measured for minimum inhibitory concentration (MIC: unit μg/ml) according to an agar dilution process (Hoechst 345) in which Muller-Hinton agars were diluted two fold. For comparison, ciprofloxacin and sparfloxacin were used as controls. Corresponding enantiomers and racemates of the compounds of interest were also used as comparative ones. Bacteria were inoculated at an amount of about 10^7 cfu/ml onto each agar. 18 hours after the inoculation at 37° C., the growth of the bacteria was observed. As to methicillin-resistant strains, their growth was observed 48 hours after the inoculation at […]. Hoechst standard strains were used as the test bacteria.

[2] = system: Staphylococcus aureus 690E; assay: as above; assay type: cell-based; conditions: resistant strain Staphylococcus aureus 690E
Description: as §1

[3] = system: Staphylococcus aureus 256E; assay: as above; assay type: cell-based; conditions: resistant strain Staphylococcus aureus 256E
Description: as §1

[4] = system: Staphylococcus aureus 121E; assay: as above; assay type: cell-based; conditions: resistant strain Staphylococcus aureus 121E
Description: as §1

[5] = system: Staphylococcus epidermidis 319; assay: as above; assay type: cell-based; conditions: resistant strain Staphylococcus epidermidis 319
Description: as §1

[6] = system: Staphylococcus aureus 208E; assay: as above; assay type: cell-based; conditions: resistant strain Staphylococcus aureus 208E
Description: as §1

[7] = system: Staphylococcus aureus 179; assay: as above; assay type: cell-based; conditions: resistant strain Staphylococcus aureus 179
Description: as §1

[8] = system: Staphylococcus aureus 241; assay: as above; assay type: cell-based; conditions: resistant strain Staphylococcus aureus 241
Description: as §1

[9] = system: Staphylococcus aureus 692E; assay: as above; assay type: cell-based; conditions: resistant strain Staphylococcus aureus 692E
Description: as §1

[10] = system: Staphylococcus aureus 693E; assay: as above; assay type: cell-based; conditions: resistant strain Staphylococcus aureus 693E
Description: as §1

[11] = system: Staphylococcus aureus 293; assay: as above; assay type: cell-based; conditions: resistant strain Staphylococcus aureus 293
Description: as §1

[12] = system: Staphylococcus epidermidis 329; assay: as above; assay type: cell-based; conditions: resistant strain Staphylococcus epidermidis 329
Description: as §1

[13] = system: Staphylococcus aureus 88E; assay: as above; assay type: cell-based; conditions: resistant strain Staphylococcus aureus 88E
Description: as §1

[14] = Phototoxicity test; assay type: in vivo; conditions: CD-1 female mice, oral 50 mg/kg; for Thickness of mice's ears after UV exposure, After 24 hr / Thickness of mice's ears after UV exposure, After 48 hr: UVA light source; for Thickness of mice's ears after UV exposure, After 24 hr / Thickness of mice's ears after UV exposure, After 48 hr / Thickness of mice's ears, Before UV exposure: 50 mg/kg; for edema and erythema observed after UV exposure / increase in ear thickness compared with before the UV exposure: after 48 hours of the UV exposure; for Thickness of mice's ears, Before UV exposure: baseline before UVA
Description: It is known that the presence of a halogen atom at the 8-position of the quinolone nuclei causes phototoxicity.
After 16 hours of starvation, CD-1 female mice were orally administered with a dose of 50 mg/kg of the compounds and allowed to be exposed for 4.5 hours to a UVA light source. The mice were located 15 cm away from the light source. Whether the mice were damaged in their ears was adopted as a main factor for the phototoxicity and determined after 24 hour and 48 hour UV exposure. The edema which the mice suffered were examined by measuring the thickness changes of their ears with the aid of electronic calipers and calculating average values. Also, an observation was made as to whether the mice suffered from erythema.

[15] = listed as enantiomer of the compound of Example 14, 50 mg/kg
[16] = listed as Racemic mixture of Example 14 compound
[17] = listed as racemate of the compound of Example 14, 50 mg/kg

Structure (SMILES) | minimum inhibitory concentration (MIC) [1] [µg/mL] | minimum inhibitory concentration (MIC) [2] [µg/mL] | minimum inhibitory concentration (MIC) [3] [µg/mL] | minimum inhibitory concentration (MIC) [4] [µg/mL] | minimum inhibitory concentration (MIC) [5] [µg/mL] | minimum inhibitory concentration (MIC) [6] [µg/mL] | minimum inhibitory concentration (MIC) [7] [µg/mL] | minimum inhibitory concentration (MIC) [8] [µg/mL] | minimum inhibitory concentration (MIC) [9] [µg/mL] | minimum inhibitory concentration (MIC) [10] [µg/mL] | minimum inhibitory concentration (MIC) [11] [µg/mL] | minimum inhibitory concentration (MIC) [12] [µg/mL] | minimum inhibitory concentration (MIC) [13] [µg/mL] | other results
CO/N=C1\CN(c2cc3c(cc2F)c(=O)c(C(=O)O)cn3C2CC2)CC1(C)CN.Cl (racemic) [Racemate of Example 19 Compound] | 0.391 | 0.007 | 0.013 | 0.013 | 0.781 | 0.013 | 0.391 | 0.391 | 0.013 | 0.013 | 0.391 | 0.781 | 0.013 | 
CO/N=C1\CN(c2c(F)c(N)c3c(=O)c(C(=O)O)cn(C4CC4)c3c2F)CC1(C)CN.Cl (single isomer, unassigned) [Enantiomer of Example 14 Compound] | 0.195 | 0.004 | 0.013 | 0.013 | 0.781 | 0.013 | 0.195 | 0.195 | 0.004 | 0.004 | 0.195 | 1.563 | 0.007 | Thickness of mice's ears after UV exposure, After 24 hr [14]: 36.3 ± 3.01; Thickness of mice's ears after UV exposure, After 48 hr [14]: 44.5 ± 4.0; edema and erythema observed after UV exposure [14, 15]: serious edema and erythema; increase in ear thickness compared with before the UV exposure [14, 15]: 150%; Thickness of mice's ears, Before UV exposure [14]: 17.8 ± 0.89
CO/N=C1\CN(c2nc3c(cc2F)c(=O)c(C(=O)O)cn3C2CC2)CC1(C)CN.Cl (single isomer, unassigned) [Enantiomer of Example 9 Compound] | 0.781 | 0.025 | 0.025 | 0.049 | 6.250 | 0.049 | 1.563 | 1.563 | 0.025 | 0.025 | 1.563 | 12.500 | 0.025 | 
CO/N=C1\CN(c2c(F)c(N)c3c(=O)c(C(=O)O)cn(C4CC4)c3c2F)CC1(C)CN.Cl (racemic) [Racemate of Example 14 Compound] | 0.025 | <0.002 | <0.002 | <0.002 | 0.049 | <0.002 | 0.025 | 0.025 | <0.002 | <0.002 | 0.025 | 0.098 | <0.002 | Thickness of mice's ears after UV exposure, After 24 hr [14, 16]: 23.5 ± 1.31; Thickness of mice's ears after UV exposure, After 48 hr [14, 16]: 24.4 ± 2.33; edema and erythema observed after UV exposure [14, 17]: moderate edema and erythema; increase in ear thickness compared with before the UV exposure [14, 17]: 39%; Thickness of mice's ears, Before UV exposure [14, 16]: 17.6 ± 0.52
CO/N=C1\CN(c2nc3c(cc2F)c(=O)c(C(=O)O)cn3C2CC2)CC1(C)CN.Cl (racemic) [Racemate of Example 9 Compound] | 0.195 | 0.004 | 0.007 | 0.007 | 0.391 | 0.007 | 0.195 | 0.195 | <0.002 | 0.007 | 0.195 | 0.781 | 0.007 | 
CO/N=C1\CN(c2cc3c(cc2F)c(=O)c(C(=O)O)cn3C2CC2)CC1(C)CN.Cl (single isomer, unassigned) [Enantiomer of Example 19 Compound] | 3.125 | 0.049 | 0.098 | 0.098 | 12.500 | 0.098 | 3.125 | 3.125 | 0.049 | 0.098 | 3.125 | 12.500 | 0.098 | 
